This is an account of results in patent US20190142971A1, “FORMULATION AND DELIVERY OF MODIFIED NUCLEOSIDE, NUCLEOTIDE, AND NUCLEIC ACID COMPOSITIONS” (ModernaTX, Inc., priority 2013, published 2019).

Format in all cases: in vivo
Series [1] has as its system mice. Briefly: Example 42A: G-CSF/EPO mRNA in buffer IM in mice, serum protein at 13 hours (Table 67). Conditions: IM 100 ug. Here is the method:
The mice were bled at 13 hours after the injection to determine the concentration of the human polypeptide in serum in pg/mL (G-CSF groups measured human G-CSF in mouse serum and EPO groups measured human EPO in mouse serum).

The next series concerns Sprague-Dawley rats. Briefly: Example 34: EPO mRNA in buffer IM in rats, serum EPO (Table 59). Conditions: dose 100 μg, 13 hours post injection.
Series [2] has as its system mice. Briefly: Example 65: G-CSF/EPO mRNA in saline in mice, serum protein at 13 hours (Table 97). Conditions: 100 ug, 100 μl/mouse, F. buffer, 13 hours after injection. As to the method:
The mice were bled at 13 hours after the injection to determine the concentration of the human polypeptide in serum in pg/mL. (G-CSF groups measured human G-CSF in mouse serum and EPO groups measured human EPO in mouse serum).

Turning to “Luciferase: luciferase mRNA, SEQ ID NO: 14, Cap1, fully modified with 5-methylcytosine and pseudouridine”, in the series with mice [1] (EPO group: human EPO in mouse serum), the “Average Protein Product, serum” value is 15.0 pg/mL. Also, the “Average Protein Product, serum” value in the series with mice [1] (G-CSF group: human G-CSF in mouse serum) turned out to be 0.5 pg/mL. For the same substance, in the series with Sprague-Dawley rats, the “human EPO in serum, Avg.” value turned out to be 24.5 pg/mL and the “human EPO in serum, Geometric-mean” value was found to be 22.4 pg/mL. Further, the “Average Protein Product, serum (human EPO)” value with mice [2] (EPO group) is listed as 26.7 pg/mL. In the series on mice [2] (G-CSF group), the “Average Protein Product, serum (human G-CSF)” value came out at 0 pg/mL.
